Laboratory results taken from ChEMBL document CHEMBL4420081, “Novel benzylamino substituted quinazolines and derivatives as sos1 inhibitors” (2018).

What was measured:
Type in all cases: functional
Details in all cases: PC-9, 336 h, read-out: GI
PC-9 [1] = assay: Growth inhibition of human PC9 cells grown under 3D anchorage-independent soft-agar conditions at 3.33 nM incubated for 14 days by alamar blue dye based assay relative to control
PC-9 [2] = assay: Growth inhibition of human PC9 cells grown under 3D anchorage-independent soft-agar conditions at 0.37 nM incubated for 14 days by alamar blue dye based assay relative to control
PC-9 [3] = assay: Growth inhibition of human PC9 cells grown under 3D anchorage-independent soft-agar conditions at 1.11 nM incubated for 14 days by alamar blue dye based assay relative to control
PC-9 [4] = assay: Growth inhibition of human PC9 cells grown under 3D anchorage-independent soft-agar conditions at 10 nM incubated for 14 days by alamar blue dye based assay relative to control
PC-9 [5] = assay: Growth inhibition of human PC9 cells grown under 3D anchorage-independent soft-agar conditions at 0.123 nM incubated for 14 days by alamar blue dye based assay relative to control

## C=CC(=O)Nc1cccc(Oc2nc(Nc3ccc(N4CCN(C)CC4)cc3)nc3ccsc23)c1 [OLMUTINIB]
PC-9 [1]
  inhibition of growth at 0.00333 µM: 35%
PC-9 [2]
  inhibition of growth at 0.00037 µM: -3%
PC-9 [3]
  inhibition of growth at 0.00111 µM: 1%
PC-9 [4]
  inhibition of growth at 0.01 µM: 69%
PC-9 [5]
  inhibition of growth at 0.000123 µM: -3%
